Reference: patent publication US20260083865A1, “PROSTATE SPECIFIC MEMBRANE ANTIGEN (PSMA) LIGANDS AND USE THEREOF” (priority 2022, published 2026)
Numbered stars: 1 amine (or outer) side, 2 acyl side, 3 side chain; on linkers, the order of the positions; unused ones are H or OH. Bridge positions count the residues as written; N and C are the ends. Square brackets hold non-standard residues; d marks the D form. Peptide text beside a SMILES is read from it. * marks the point of attachment. ξ: configuration not given here. TtdsdLys(DOTA)NH2 = NC(=O)[C@@H](CCCCNC(=O)CN1CCN(CC(=O)O)CCN(CC(=O)O)CCN(CC(=O)O)CC1)NC(=O)CCC(=O)NCCCOCCOCCOCCCN*; X3 = O=C(O)CN1CCN(CC(=O)O)CCN(CC(=O)NCCCOCCOCCOCCCN*)CCN(CC(=O)O)CC1; DOTA = O=C(O)CN1CCN(CC(=O)O)CCN(CC(=O)*)CCN(CC(=O)O)CC1; Phe(4-Cl) = N[C@@H](Cc1ccc(Cl)cc1)C(=O)O; Arg(Me2s) = CN=C(NC)NCCC[C@H](N)C(=O)O; Phe(3-Me) = Cc1cccc(C[C@H](N)C(=O)O)c1; Arg(Me) = CNC(=N)NCCC[C@H](N)C(=O)O; X1 = O=C(CC1CCN([*:1])CC1)[*:2]; Lys(Me) = CNCCCC[C@H](N)C(=O)O; NMeL = CN[C@@H](CC(C)C)C(=O)O; Suc = O=C(CCC(=O)[*:2])[*:1]; Tle = CC(C)(C)[C@H](N)C(=O)O; Nle = CCCC[C@H](N)C(=O)O; Hexanoyl = CCCCCC(=O)*; ξD = NC(CC(=O)O)C(=O)O; Aib = CC(C)(N)C(=O)O

Assays:
[1] = target: T1, PSMA-expressing C4-2 cells (Homo sapiens, UniProt Q04609); test: FACS binding assay (competition with 50 nM PSM-0183); settings: pIC50 category of FACS binding, C4-2 cells; read-out: pIC50 [C4-2] CAT (converted)
T1 construct: PSMA-expressing C4-2 cells (ATCC, Cat. No. CRL-3314) were cultured in RPMI-1640; host or cells: C4-2 cells
T1 sequence (Q04609 whole entry): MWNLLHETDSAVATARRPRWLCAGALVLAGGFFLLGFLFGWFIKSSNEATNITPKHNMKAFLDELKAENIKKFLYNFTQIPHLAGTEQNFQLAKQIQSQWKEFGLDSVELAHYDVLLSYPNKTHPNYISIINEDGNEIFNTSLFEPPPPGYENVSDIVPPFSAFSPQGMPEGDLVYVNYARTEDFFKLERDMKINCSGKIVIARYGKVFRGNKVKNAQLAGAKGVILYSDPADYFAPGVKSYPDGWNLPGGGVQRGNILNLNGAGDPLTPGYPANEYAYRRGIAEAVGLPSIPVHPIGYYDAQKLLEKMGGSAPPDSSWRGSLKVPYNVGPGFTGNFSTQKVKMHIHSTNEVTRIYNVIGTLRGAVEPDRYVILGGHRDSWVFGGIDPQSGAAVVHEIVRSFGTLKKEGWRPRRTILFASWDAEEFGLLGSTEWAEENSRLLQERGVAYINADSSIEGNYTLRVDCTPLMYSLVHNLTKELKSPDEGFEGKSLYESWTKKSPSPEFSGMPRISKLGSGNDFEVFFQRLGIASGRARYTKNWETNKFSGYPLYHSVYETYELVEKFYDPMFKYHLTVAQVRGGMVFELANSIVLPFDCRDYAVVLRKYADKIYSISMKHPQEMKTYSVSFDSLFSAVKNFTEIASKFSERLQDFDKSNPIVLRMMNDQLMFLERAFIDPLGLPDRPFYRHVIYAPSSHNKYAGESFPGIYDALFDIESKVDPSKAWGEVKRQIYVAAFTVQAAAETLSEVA
In short: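 C4-2 cells were incubated 1 h at 4 °C with 50 nM AF488-labelled peptide PSM-0183 plus increasing test compound concentrations, then washed twice in ice-cold buffer. Median fluorescence in the AF488 channel was read by flow cytometry. IC50/pIC50 was derived by 4PL fitting of MFI versus concentration.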

[2] = target: T2, Fc-fusion protein of human PSMA (hPSMA-Fc) (Homo sapiens, UniProt Q04609); test: Surface plasmon resonance assay (Biacore T200, single cycle kinetic); type: binding; settings: pKD category for PSMA SPR activity assay, hPSMA-Fc, 25° C.; read-out: pKD CAT (converted)
T2 construct: purchased Acro Biosystems PSA-H5264
T2 sequence (Q04609 44-750 limits assumed): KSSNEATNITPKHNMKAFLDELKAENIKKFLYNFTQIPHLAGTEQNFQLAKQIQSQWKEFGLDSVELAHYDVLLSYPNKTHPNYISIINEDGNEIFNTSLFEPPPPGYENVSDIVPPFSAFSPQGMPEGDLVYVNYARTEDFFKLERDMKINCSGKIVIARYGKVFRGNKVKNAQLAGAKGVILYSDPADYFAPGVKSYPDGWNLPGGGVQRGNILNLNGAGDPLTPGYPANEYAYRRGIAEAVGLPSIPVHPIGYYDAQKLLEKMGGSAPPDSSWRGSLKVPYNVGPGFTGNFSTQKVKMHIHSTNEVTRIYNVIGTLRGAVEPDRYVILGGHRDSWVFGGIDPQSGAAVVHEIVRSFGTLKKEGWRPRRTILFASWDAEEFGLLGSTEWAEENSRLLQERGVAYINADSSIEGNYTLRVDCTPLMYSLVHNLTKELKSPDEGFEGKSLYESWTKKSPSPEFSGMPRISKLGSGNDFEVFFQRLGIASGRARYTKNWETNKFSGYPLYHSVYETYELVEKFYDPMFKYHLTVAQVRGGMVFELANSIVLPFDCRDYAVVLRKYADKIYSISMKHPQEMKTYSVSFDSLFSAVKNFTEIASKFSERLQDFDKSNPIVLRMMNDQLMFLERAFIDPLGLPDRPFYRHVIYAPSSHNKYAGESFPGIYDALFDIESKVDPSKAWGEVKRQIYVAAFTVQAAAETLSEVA
In short: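 hPSMA-Fc was captured (~1000 RU) on an Fc-binding-peptide CM5 chip, and compounds were run in single cycle kinetic mode at 25° C in HBST with 0.1% DMSO. Double-blank-corrected sensorgrams were fitted to a 1:1 Langmuir model to give KD, reported as pKD.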

Structure (SMILES)	IC50 [1] [nM]	Kd [2] [nM]
CC(C)C[C@@H](C(=O)N[C@H](C(N)=O)[C@@H](C)O)N(C)C(=O)[C@@H]1CSSC[C@H](NC(=O)[C@H](Cc2ccc(Cl)cc2)NC(=O)C(C)(C)NC(=O)[C@@H](NC(=O)CC2CCN(C(=O)CN3CCN(CC(=O)O)CCN(CC(=O)O)CCN(CC(=O)O)CC3)CC2)[C@@H](C)O)C(=O)N[C@@H](CCCCN)C(=O)N[C@@H](CCCNC(=N)N)C(=O)NC(C)(C)C(=O)N[C@@H](CC(N)=O)C(=O)N1 [PSM-0497, DOTA-Cmp-Thr-Aib-Pcf-[Cys-Lys-Arg-Aib-Asn-Cys]-Nml-Thr-NH2] ({DOTA}-[X1]T[Aib][Phe(4-Cl)]CKR[Aib]NC[NMeL]T-NH2; disulfide 5-10)	200 to 1260	126 to 501
CSCC[C@H](N)C(=O)N[C@H](C(=O)N[C@@H](C)C(=O)N[C@@H](Cc1ccccc1)C(=O)N[C@H]1CSSC[C@@H](C(=O)N[C@@H](CC(C)C)C(=O)N[C@H](C(=O)NC(CC(=O)O)C(=O)NCC(=O)N[C@@H](CO)C(N)=O)[C@@H](C)O)NC(=O)[C@H](CC(N)=O)NC(=O)[C@H](C)NC(=O)[C@H](CCCNC(=N)N)NC(=O)[C@H](CCCCN)NC1=O)[C@@H](C)O (stereo partly drawn) [PSM-0498, H-Met-Thr-Ala-Phe-[Cys-Lys-Arg-Ala-Asn-Cys]-Lou-Thr-Asp-Gly-Ser-NH2] (H-MTAFCKRANCLT[ξD]GS-NH2; disulfide 5-10)	< 200	< 12.6
C/N=C(/NC)NCCC[C@@H]1NC(=O)[C@H](CCCCNC)NC(=O)[C@@H](NC(=O)[C@H](Cc2ccc(Cl)cc2)NC(=O)C(C)(C)NC(=O)[C@@H](NC(=O)CC2CCN(C(=O)CN3CCN(CC(=O)O)CCN(CC(=O)O)CCN(CC(=O)O)CC3)CC2)[C@@H](C)O)CSSC[C@@H](C(=O)N[C@H](C(=O)N[C@H](C(N)=O)[C@@H](C)O)C(C)(C)C)NC(=O)[C@H](CC(N)=O)NC(=O)C(C)(C)NC1=O [PSM-0499, DOTA-Cmp-Thr-Aib-Pcf-[Cys-Lys(Me)-Egd-Aib-Asn-Cys]-Tle-Thr-NH2] ({DOTA}-[X1]T[Aib][Phe(4-Cl)]C[Lys(Me)][Arg(Me2s)][Aib]NC[Tle]T-NH2; disulfide 5-10)	< 200	< 12.6
CCCC[C@H](NC(=O)[C@@H]1CSSC[C@H](NC(=O)[C@H](Cc2ccccc2)NC(=O)C(C)(C)NC(=O)[C@@H](NC(C)=O)[C@@H](C)O)C(=O)N[C@@H](CCCCN)C(=O)N[C@@H](CCCNC(=N)N)C(=O)N[C@@H](C)C(=O)N[C@@H](CC(N)=O)C(=O)N1)C(=O)N[C@H](C(=O)N[C@@H](CC(=O)O)C(N)=O)[C@@H](C)O [PSM-0501, Ac-Thr-Aib-Phe-[Cys-Lys-Arg-Ala-Asn-Cys]-Nle-Thr-Asp-NH2] (Ac-T[Aib]FCKRANC[Nle]TD-NH2; disulfide 4-9)	< 200	< 12.6
CCCCCC(=O)N[C@H](C(=O)NC(C)(C)C(=O)N[C@@H](Cc1ccccc1)C(=O)N[C@H]1CSSC[C@@H](C(=O)N[C@H](C(=O)N[C@H](C(=O)N[C@@H](CC(=O)O)C(=O)NCCCOCCOCCOCCCNC(=O)CCC(=O)N[C@H](CCCCNC(=O)CN2CCN(CC(=O)O)CCN(CC(=O)O)CCN(CC(=O)O)CC2)C(N)=O)[C@@H](C)O)C(C)(C)C)NC(=O)[C@H](CC(N)=O)NC(=O)[C@H](C)NC(=O)[C@H](CCCNC(=N)N)NC(=O)[C@H](CCCCN)NC1=O)[C@@H](C)O [PSM-0502, Hex-Thr-Aib-Phe-[Cys-Lys-Arg-Ala-Asn-Cys]-Tle-Thr-Asp-Ttds-lys(DOTA)-NH2] (Hexanoyl-T[Aib]FCKRANC[Tle]TD-{TtdsdLys(DOTA)NH2}; disulfide 4-9)	< 200	< 12.6
CNCCCC[C@@H]1NC(=O)[C@@H](NC(=O)[C@H](Cc2cccc(C)c2)NC(=O)C(C)(C)NC(=O)[C@@H](NC(=O)CC2CCN(C(=O)CN3CCN(CC(=O)O)CCN(CC(=O)O)CCN(CC(=O)O)CC3)CC2)[C@@H](C)O)CSSC[C@@H](C(=O)N[C@H](C(N)=O)C(C)(C)C)NC(=O)[C@H](CC(N)=O)NC(=O)C(C)(C)NC(=O)[C@H](CCCNC(=N)NC)NC1=O [PSM-0503, DOTA-Cmp-Thr-Aib-Mmf-[Cys-Lys(Me)-Arg(Me)-Aib-Asn-Cys]-Tle-NH2] ({DOTA}-[X1]T[Aib][Phe(3-Me)]C[Lys(Me)][Arg(Me)][Aib]NC[Tle]-NH2; disulfide 5-10)	< 200	12.6 to 126
CCCC[C@H](NC(=O)[C@@H]1CSSC[C@H](NC(=O)[C@H](Cc2ccccc2)NC(=O)[C@H](C)NC(=O)[C@@H](NC(=O)CCC(=O)NCCCOCCOCCOCCCNC(=O)CN2CCN(CC(=O)O)CCN(CC(=O)O)CCN(CC(=O)O)CC2)[C@@H](C)O)C(=O)N[C@@H](CCCCN)C(=O)N[C@@H](CCCNC(=N)N)C(=O)N[C@@H](C)C(=O)N[C@@H](CC(N)=O)C(=O)N1)C(=O)N[C@H](C(=O)N[C@@H](CC(=O)O)C(N)=O)[C@@H](C)O [PSM-0504, DOTA-Ttds-Thr-Ala-Phe-[Cys-Lys-Arg-Ala-Asn-Cys]-Nle-Thr-Asp-NH2] ({X3-Suc}-TAFCKRANC[Nle]TD-NH2; disulfide 4-9)	200 to 1260	12.6 to 126
